Patent publication EP2987533B1, “7-substituted piperazin-1-yl fluoroquinolone compounds, their use in the treatment of cancer, pharmaceutical compositions and a method for preparation” (priority 2014, dated 2016)

Key:
[1] = tested on: 60 human tumor cell line panel; assay: NCI 60 cell line one-dose SRB primary anticancer assay; assay type: cell-based; settings: 60 cell lines assay in one dose, 10µM (title; head prints 10.0 mM), 48 h; for inhibition at 10 µM: Homo sapiens, read-out: MGI % (Mean growth inhibition percentage)
Method: (§1) A primary anticancer assay was performed for an approximately 60 human tumor cell line panel derived from nine neoplastic diseases, in accordance with the protocol of the Drug Evaluation Branch, National Cancer Institute, Bethesda, MD (Monks A. et al., J. Natl. Cancer Inst 1991, 83, 757-766; Boyd M.R. and Paull K.D., Drug. Dev. Res. 1995, 34, 91-109; Shoemaker R.H., Nat. Rev. Cancer 2006, 6, 813-823). Briefly, tested compounds were added to the culture at a single concentration (10^-5M), and the cultures were incubated for 48 h. End point determinations were made with a protein binding dye, sulforhodamine B (SRB). The results for each tested compound were reported as the growth percentage of the treated cells when compared to that of the untreated control cells. The percentage growth was evaluated spectrophotometrically versus controls not treated with test agents.

A549/ATCC = assay: NCI one-dose SRB growth assay; assay type: cell-based; settings: Homo sapiens; A549/ATCC (Non-Small Cell Lung Cancer), 10^-5 M, 48 h; read-out: % Growth Inhibition (GI %)
Method: as §1

ACHN = assay: NCI one-dose SRB growth assay; assay type: cell-based; settings: Homo sapiens; ACHN (Renal Cancer), 10^-5 M, 48 h; read-out: % Growth Inhibition (GI %)
Method: as §1

HCT-116 = assay: NCI one-dose SRB growth assay; assay type: cell-based; settings: Homo sapiens; HCT-116 (Colon Cancer), 10^-5 M, 48 h; read-out: % Growth Inhibition (GI %)
Method: as §1

HL-60(TB) = assay: NCI one-dose SRB growth assay; assay type: cell-based; settings: Homo sapiens; HL-60(TB) (Leukemia), 10^-5 M, 48 h; read-out: % Growth Inhibition (GI %)
Method: as §1

HOP-62 = assay: NCI one-dose SRB growth assay; assay type: cell-based; settings: Homo sapiens; HOP-62 (Non-Small Cell Lung Cancer), 10^-5 M, 48 h; read-out: % Growth Inhibition (GI %)
Method: as §1

IGROV1 = assay: NCI one-dose SRB growth assay; assay type: cell-based; settings: Homo sapiens, IGROV-1; IGROV1 (Ovarian Cancer), 10^-5 M, 48 h; read-out: % Growth Inhibition (GI %)
Method: as §1

MDA-MB-435 = assay: NCI one-dose SRB growth assay; assay type: cell-based; settings: Homo sapiens; MDA-MB-435 (Melanoma), 10^-5 M, 48 h; read-out: % Growth Inhibition (GI %)
Method: as §1

NCI-H226 = assay: NCI one-dose SRB growth assay; assay type: cell-based; settings: Homo sapiens; NCI-H226 (Non-Small Cell Lung Cancer), 10^-5 M, 48 h; read-out: % Growth Inhibition (GI %)
Method: as §1

NCI-H23 = assay: NCI one-dose SRB growth assay; assay type: cell-based; settings: Homo sapiens; NCI-H23 (Non-Small Cell Lung Cancer), 10^-5 M, 48 h; read-out: % Growth Inhibition (GI %)
Method: as §1

NCI-H522 = assay: NCI one-dose SRB growth assay; assay type: cell-based; settings: Homo sapiens; NCI-H522 (Non-Small Cell Lung Cancer), 10^-5 M, 48 h; read-out: % Growth Inhibition (GI %)
Method: as §1

OVCAR-8 = assay: NCI one-dose SRB growth assay; assay type: cell-based; settings: Homo sapiens; OVCAR-8 (Ovarian Cancer), 10^-5 M, 48 h; read-out: % Growth Inhibition (GI %)
Method: as §1

SF-295 = assay: NCI one-dose SRB growth assay; assay type: cell-based; settings: Homo sapiens; SF-295 (CNS Cancer), 10^-5 M, 48 h; read-out: % Growth Inhibition (GI %)
Method: as §1

SK-MEL-5 = assay: NCI one-dose SRB growth assay; assay type: cell-based; settings: Homo sapiens; SK-MEL-5 (Melanoma), 10^-5 M, 48 h; read-out: % Growth Inhibition (GI %)
Method: as §1

SK-OV-3 = assay: NCI one-dose SRB growth assay; assay type: cell-based; settings: Homo sapiens; SK-OV-3 (Ovarian Cancer), 10^-5 M, 48 h; read-out: % Growth Inhibition (GI %)
Method: as §1

SR = assay: NCI one-dose SRB growth assay; assay type: cell-based; settings: Homo sapiens; SR (Leukemia), 10^-5 M, 48 h; read-out: % Growth Inhibition (GI %)
Method: as §1

SW-620 = assay: NCI one-dose SRB growth assay; assay type: cell-based; settings: Homo sapiens; SW-620 (Colon Cancer), 10^-5 M, 48 h; read-out: % Growth Inhibition (GI %)
Method: as §1

TK-10 = assay: NCI one-dose SRB growth assay; assay type: cell-based; settings: Homo sapiens; TK-10 (Renal Cancer), 10^-5 M, 48 h; read-out: % Growth Inhibition (GI %)
Method: as §1

UO-31 = assay: NCI one-dose SRB growth assay; assay type: cell-based; settings: Homo sapiens; UO-31 (Renal Cancer), 10^-5 M, 48 h; read-out: % Growth Inhibition (GI %)
Method: as §1

leukemia = assay: NCI five-dose SRB assay, subpanel average; settings: 48 h; for GI50 / CC50: Homo sapiens; for GI50: read-out: GI50 (median growth inhibitory); for CC50: read-out: LC50 (median lethal); for TGI (total growth inhibitory): average over leukemia subpanel, five concentrations
NSC lung cancer = assay: NCI five-dose SRB assay, subpanel average; settings: 48 h; for GI50 / CC50: Homo sapiens; for GI50: read-out: GI50 (median growth inhibitory); for CC50: read-out: LC50 (median lethal); for TGI (total growth inhibitory): average over NSC lung cancer subpanel, five concentrations
CNS cancer = assay: NCI five-dose SRB assay, subpanel average; settings: 48 h; for GI50 / CC50: Homo sapiens; for GI50: read-out: GI50 (median growth inhibitory); for CC50: read-out: LC50 (median lethal); for TGI (total growth inhibitory): average over CNS cancer subpanel, five concentrations
melanoma = assay: NCI five-dose SRB assay, subpanel average; settings: 48 h; for GI50 / CC50: Homo sapiens; for GI50: read-out: GI50 (median growth inhibitory); for CC50: read-out: LC50 (median lethal); for TGI (total growth inhibitory): average over melanoma subpanel, five concentrations
renal cancer = assay: NCI five-dose SRB assay, subpanel average; settings: 48 h; for GI50 / CC50: Homo sapiens; for GI50: read-out: GI50 (median growth inhibitory); for CC50: read-out: LC50 (median lethal); for TGI (total growth inhibitory): average over renal cancer subpanel, five concentrations
prostate cancer = assay: NCI five-dose SRB assay, subpanel average; settings: 48 h; for GI50 / CC50: Homo sapiens; for GI50: read-out: GI50 (median growth inhibitory); for CC50: read-out: LC50 (median lethal); for TGI (total growth inhibitory): average over prostate cancer subpanel, five concentrations
breast cancer = assay: NCI five-dose SRB assay, subpanel average; settings: 48 h; for GI50 / CC50: Homo sapiens; for GI50: read-out: GI50 (median growth inhibitory); for CC50: read-out: LC50 (median lethal); for TGI (total growth inhibitory): average over breast cancer subpanel, five concentrations

## CCn1cc(C(=O)O)c(=O)c2cc(F)c(N3CCN(S(=O)(=O)c4c(C)cc(C)cc4C)CC3)cc21 [Compound 6a]
[1]
  PCE (Positive cytotoxic effect: ratio between number of cell lines with percentage growth inhibition from 10 to >100 and total number of cell lines): 46/58
  RGI % (Range of growth inhibition percentage): 66.90 to 10.12%
  inhibition at 10 µM: 18.3%
A549/ATCC
  inhibition at 10 µM: 22%
ACHN
  inhibition at 10 µM: 24.2%
HCT-116
  inhibition at 10 µM: 20.9%
HL-60(TB)
  inhibition at 10 µM: 26.9%
HOP-62
  inhibition at 10 µM: 28.5%
IGROV1
  inhibition at 10 µM: 20.6%
MDA-MB-435
  inhibition at 10 µM: 10.9%
NCI-H226
  inhibition at 10 µM: 23.1%
NCI-H23
  inhibition at 10 µM: 22.3%
NCI-H522
  inhibition at 10 µM: 13.5%
OVCAR-8
  inhibition at 10 µM: 18.5%
SF-295
  inhibition at 10 µM: 51.6%
SK-MEL-5
  inhibition at 10 µM: 20.5%
SK-OV-3
  inhibition at 10 µM: < 10%
SR
  inhibition at 10 µM: 35.5%
SW-620
  inhibition at 10 µM: < 10%
TK-10
  inhibition at 10 µM: < 10%
UO-31
  inhibition at 10 µM: 66.9%

## CCn1cc(C(=O)O)c(=O)c2cc(F)c(N3CCN(S(=O)(=O)c4ccc(Cl)cc4)CC3)cc21 [Compound 1a]
[1]
  PCE (Positive cytotoxic effect: ratio between number of cell lines with percentage growth inhibition from 10 to >100 and total number of cell lines): 56/56
  RGI % (Range of growth inhibition percentage): >100.0 to 31.3%
  inhibition at 10 µM: 75.6%
A549/ATCC
  inhibition at 10 µM: 84.4%
ACHN
  inhibition at 10 µM: 71.3%
HCT-116
  inhibition at 10 µM: 95.2%
HL-60(TB)
  inhibition at 10 µM: 91%
IGROV1
  inhibition at 10 µM: 90.6%
MDA-MB-435
  inhibition at 10 µM: 74.9%
NCI-H226
  inhibition at 10 µM: 39.9%
NCI-H23
  inhibition at 10 µM: > 100%
NCI-H522
  inhibition at 10 µM: 91.6%
OVCAR-8
  inhibition at 10 µM: 87.4%
SF-295
  inhibition at 10 µM: 96.1%
SK-MEL-5
  inhibition at 10 µM: 73.4%
SK-OV-3
  inhibition at 10 µM: 59.2%
SW-620
  inhibition at 10 µM: 76%
TK-10
  inhibition at 10 µM: 46.4%
UO-31
  inhibition at 10 µM: 48.9%
leukemia
  GI50: 2.89 µM
  CC50: > 100 µM
  TGI (total growth inhibitory): 80.96 µM
NSC lung cancer
  GI50: 2.87 µM
  CC50: > 100 µM
  TGI (total growth inhibitory): 53.38 µM
CNS cancer
  GI50: 3.57 µM
  CC50: > 100 µM
  TGI (total growth inhibitory): 70.26 µM
melanoma
  GI50: 2.56 µM
  CC50: 89.7 µM
  TGI (total growth inhibitory): 29.36 µM
Renal cancer
  GI50: 2.93 µM
  CC50: > 100 µM
  TGI (total growth inhibitory): 54.00 µM
Prostate cancer
  GI50: 3.21 µM
  CC50: > 100 µM
  TGI (total growth inhibitory): 54.11 µM
Breast cancer
  GI50: 2.95 µM
  CC50: > 100 µM
  TGI (total growth inhibitory): 54.63 µM

## O=c1[nH]cc(F)c(=O)[nH]1 [Compound 5-FU, 5-fluorouracil, reference compound]
A549/ATCC
  inhibition at 10 µM: 34.2%
ACHN
  inhibition at 10 µM: 39.3%
HCT-116
  inhibition at 10 µM: 17.8%
HL-60(TB)
  inhibition at 10 µM: 47.9%
HOP-62
  inhibition at 10 µM: 47.8%
IGROV1
  inhibition at 10 µM: 51.2%
MDA-MB-435
  inhibition at 10 µM: 36.6%
NCI-H226
  inhibition at 10 µM: 69.5%
NCI-H23
  inhibition at 10 µM: 39%
NCI-H522
  inhibition at 10 µM: 58%
SF-295
  inhibition at 10 µM: 69.1%
SK-MEL-5
  inhibition at 10 µM: 33.7%
SK-OV-3
  inhibition at 10 µM: 77.5%
SR
  inhibition at 10 µM: 24.8%
SW-620
  inhibition at 10 µM: 50.1%
TK-10
  inhibition at 10 µM: 66.9%
UO-31
  inhibition at 10 µM: 41.3%
leukemia
  GI50: 15.1 µM
  CC50: > 100 µM
  TGI (total growth inhibitory): c (Compounds showed values > 100µM)
NSC lung cancer
  GI50: > 100 µM
  CC50: > 100 µM
  TGI (total growth inhibitory): c (Compounds showed values > 100µM)
CNS cancer
  GI50: 72.1 µM
  CC50: > 100 µM
  TGI (total growth inhibitory): c (Compounds showed values > 100µM)
melanoma
  GI50: 70.6 µM
  CC50: > 100 µM
  TGI (total growth inhibitory): c (Compounds showed values > 100µM)
Renal cancer
  GI50: 45.6 µM
  CC50: > 100 µM
  TGI (total growth inhibitory): c (Compounds showed values > 100µM)
Prostate cancer
  GI50: 22.7 µM
  CC50: > 100 µM
  TGI (total growth inhibitory): c (Compounds showed values > 100µM)
Breast cancer
  GI50: 76.4 µM
  CC50: > 100 µM
  TGI (total growth inhibitory): c (Compounds showed values > 100µM)
